Experimental data published in US20060263802A1 (priority 2003, published 2006).

Key:
Format in all cases: binding
[1] = system: human monoclonal antibody CRJB
[2] = system: human monoclonal antibody CRJA
[3] = system: human monoclonal antibody CRJA; remark: listed apart in the source
[4] = system: human monoclonal antibody CR57
[5] = system: human monoclonal antibody CRJB; remark: listed apart in the source
[6] = system: human monoclonal antibody CR57; remark: listed apart in the source

Sequence | Binding of human monoclonal antibody CRJB to linear peptide (PEPSCAN-ELISA signal) [1] | Binding of human monoclonal antibody CRJA to linear peptide (PEPSCAN-ELISA signal) [2] | Binding of CRJA to looped/cyclic peptide (PEPSCAN-ELISA signal) [3] | Binding of human monoclonal antibody CR57 to linear peptide (PEPSCAN-ELISA signal) [4] | Binding of CRJB to looped/cyclic peptide (PEPSCAN-ELISA signal) [5] | Binding of CR57 to looped/cyclic peptide (PEPSCAN-ELISA signal) [6] | Binding of CRJB to linear peptide (PEPSCAN-ELISA signal) [1] | Binding of CRJA to linear peptide (PEPSCAN-ELISA signal) [2] | Binding of CRJA (10 μg/ml) to looped/cyclic peptide (PEPSCAN-ELISA signal) [3] | Binding of CR57 to linear peptide (PEPSCAN-ELISA signal) [4] | Binding of CRJB (10 μg/ml) to looped/cyclic peptide (PEPSCAN-ELISA signal) [5] | Binding of CR57 (10 μg/ml) to looped/cyclic peptide (PEPSCAN-ELISA signal) [6] | Binding of CRJA (10 μg/ml) to looped/cyclic peptide (PEPSCAN-ELISA) [3] | Binding of CRJB (10 μg/ml) to looped/cyclic peptide (PEPSCAN-ELISA) [5] | Binding of CR57 (10 μg/ml) to looped/cyclic peptide (PEPSCAN-ELISA) [6]
STVFKDGDEAEDFVE | 120 | 93 | 100 | 104 | 93 | 106 |  |  |  |  |  |  |  |  | 
STYCSTNHDYTIWMP |  |  |  |  |  |  | 99 | 79 | 90 | 86 | 82 | 90 |  |  | 
SVADLDPYDRSLHSR |  |  |  |  |  |  | 106 | 92 | 83 | 49 | 71 | 58 |  |  | 
SVIPLVHPLADPSTV |  |  |  |  |  |  | 137 | 64 |  | 72 |  |  | 75 | 106 | 71
SVRTWNEILPSKGCL |  |  |  |  |  |  | 138 | 123 |  | 106 |  |  | 165 | 147 | 151
SVSFRRLSHLRKLVP |  |  |  |  |  |  | 123 | 101 |  | 64 |  |  | 98 | 84 | 94
SYMELKVGYILAIKM |  |  |  |  |  |  | 123 | 143 | 96 | 65 | 92 | 106 |  |  | 
TCGFVDERGLYKSLK |  |  |  |  |  |  | 120 | 104 |  | 47 |  |  | 100 | 79 | 84
TCTGVVTEAENYTNF |  |  |  |  |  |  | 112 | 96 | 112 | 92 | 93 | 107 |  |  | 
TEAENYTNFVGYVTT |  |  |  |  |  |  | 84 | 86 | 76 | 68 | 60 | 75 |  |  | 
TFKRKHFRPTPDACR |  |  |  |  |  |  | 111 | 97 | 105 | 96 | 99 | 112 |  |  | 
TGVVTEAENYTNFVG |  |  |  |  |  |  | 110 | 86 | 96 | 85 | 69 | 92 |  |  | 
TIFNKTLMEADAHYK |  |  |  |  |  |  | 123 | 100 |  | 107 |  |  | 96 | 91 | 114
TILDKLGPWSPIDIH |  |  |  |  |  |  | 96 | 84 | 86 | 76 | 60 | 85 |  |  | 
TIWMPENPRLGMSCD |  |  |  |  |  |  | 106 | 93 | 102 | 69 | 82 | 97 |  |  | 
TKESLVIISPSVADL |  |  |  |  |  |  | 112 | 102 | 88 | 86 | 80 | 99 |  |  | 
TKSVSFRRLSHLRKL |  |  |  |  |  |  | 125 | 103 |  | 83 |  |  | 91 | 94 | 88
TLMEADAHYKSVRTW |  |  |  |  |  |  | 114 | 111 |  | 100 |  |  | 89 | 87 | 89
TNFVGYVTTTFKRKH |  |  |  |  |  |  | 125 | 96 | 96 | 71 | 99 | 79 |  |  | 
TNHDYTIWMPENPRL |  |  |  |  |  |  | 129 | 91 | 72 | 69 | 58 | 40 |  |  | 
TNLSGFSYMELKVGY |  |  |  |  |  |  | 106 | 102 | 85 | 43 | 107 | 39 |  |  | 
TNSRGKRASKGSETC |  |  |  |  |  |  | 108 | 89 | 104 | 68 | 104 | 107 |  |  | 
TPDACRAAYNWKMAG |  |  |  |  |  |  | 132 | 132 | 111 | 92 | 90 | 125 |  |  | 
TSNETKWCPPDQLVN |  |  |  |  |  |  | 111 | 88 |  | 97 |  |  | 96 | 57 | 134
TTFKRKHFRPTPDAC |  |  |  |  |  |  | 99 | 111 | 89 | 74 | 78 | 86 |  |  | 
TTKESLVIISPSVAD |  |  |  |  |  |  | 121 | 91 | 108 | 78 | 71 | 114 |  |  | 
TTKSVSFRRLSHLRK |  |  |  |  |  |  | 118 | 94 |  | 66 |  |  | 97 | 72 | 92
TTTFKRKHFRPTPDA |  |  |  |  |  |  | 108 | 76 | 93 | 80 | 99 | 90 |  |  | 
TVFKDGDEAEDFVEV | 124 | 92 | 110 | 107 | 90 | 111 |  |  |  |  |  |  |  |  | 
TVKTTKESLVIISPS |  |  |  |  |  |  | 116 | 93 | 92 | 76 | 55 | 94 |  |  | 
